{"source": "patent US9908926B2", "about": "“Protein-based molecular temperature switch” (ARIZONA BOARD OF REGENTS ON BEHALF OF ARIZONA STATE …, priority 2014, dated 2018)", "key": {"TRPM8 protein domain": {"target": "TRPM8 protein domain (Homo sapiens, UniProt Q7Z2W7)", "sequence (Q7Z2W7 whole entry, the tested form may be a part)": "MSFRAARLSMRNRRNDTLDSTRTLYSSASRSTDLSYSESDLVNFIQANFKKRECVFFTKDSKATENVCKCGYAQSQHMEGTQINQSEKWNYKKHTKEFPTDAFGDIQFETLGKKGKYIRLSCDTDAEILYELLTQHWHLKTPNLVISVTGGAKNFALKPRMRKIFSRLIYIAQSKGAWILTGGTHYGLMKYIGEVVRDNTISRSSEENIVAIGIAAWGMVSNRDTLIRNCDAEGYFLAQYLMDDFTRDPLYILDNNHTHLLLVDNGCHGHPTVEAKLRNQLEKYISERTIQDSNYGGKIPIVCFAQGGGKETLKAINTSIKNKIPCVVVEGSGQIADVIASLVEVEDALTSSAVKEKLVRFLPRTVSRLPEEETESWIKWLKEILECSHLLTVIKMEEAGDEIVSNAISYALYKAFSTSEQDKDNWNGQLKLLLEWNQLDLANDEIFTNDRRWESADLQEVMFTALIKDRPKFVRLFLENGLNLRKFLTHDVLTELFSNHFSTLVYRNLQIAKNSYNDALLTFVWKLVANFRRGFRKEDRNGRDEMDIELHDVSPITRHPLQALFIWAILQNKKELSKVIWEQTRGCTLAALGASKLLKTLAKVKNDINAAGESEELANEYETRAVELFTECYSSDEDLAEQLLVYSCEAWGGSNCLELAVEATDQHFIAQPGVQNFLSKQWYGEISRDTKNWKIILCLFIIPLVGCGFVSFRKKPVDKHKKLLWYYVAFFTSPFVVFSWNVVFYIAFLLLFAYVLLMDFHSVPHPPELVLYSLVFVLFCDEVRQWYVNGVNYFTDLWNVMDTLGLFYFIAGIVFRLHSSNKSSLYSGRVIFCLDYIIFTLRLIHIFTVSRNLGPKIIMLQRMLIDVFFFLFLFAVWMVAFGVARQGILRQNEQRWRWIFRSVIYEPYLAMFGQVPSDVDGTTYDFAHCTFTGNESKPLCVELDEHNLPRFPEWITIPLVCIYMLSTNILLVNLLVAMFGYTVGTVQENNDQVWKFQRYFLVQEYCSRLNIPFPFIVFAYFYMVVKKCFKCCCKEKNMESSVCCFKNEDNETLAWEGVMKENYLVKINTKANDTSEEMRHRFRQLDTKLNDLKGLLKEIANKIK", "assay": "Activation of TRPM8 by menthol (shift of activation curve)", "type": "biochemical", "conditions": "FIG. 5", "from_the_text": "FIG. 3 illustrates the regulation of the ion channel via cold temperature change to an open channel within the protein membrane. The TRPM8 protein domain is weakly voltage-dependant and polymodal in that it can be activated with more than one agonist."}, "[1]": {"test_system": "human bladder cancer cell lines", "conditions": "cited from earlier work"}}, "data": [{"smiles": "CC1CCC(C(C)C)C(O)C1", "note": "(centres unmarked) [menthol]", "values": [{"measurement": "activation of the TRPM8 protein domain", "setting": "TRPM8 protein domain", "result": "activates the TRPM8 protein domain by shifting the activation curve"}, {"measurement": "cell death", "setting": "[1]", "result": "induces cell death in human bladder cancer cell lines"}]}]}
